Assay results taken from patent US8703957B2 (Janssen Pharmaceutica NV, priority 2001, dated 2014).

Assays:
human skin chymase = biological target: T1, human skin chymase (Homo sapiens, UniProt P23946); assay: Enzyme-catalyzed hydrolysis assay, chymase (chromogenic substrate Suc-Ala-Ala-Pro-Phe-pNa); type: biochemical; conditions: 10 nM enzyme, 0.7 mM substrate, pH 8.0, 37° C., 30 minutes
T1 construct: human skin chymase (Cortex Biochem); purchased Cortex Biochem; host or cells: human skin (from the enzyme's name)
T1 sequence (P23946 22-247): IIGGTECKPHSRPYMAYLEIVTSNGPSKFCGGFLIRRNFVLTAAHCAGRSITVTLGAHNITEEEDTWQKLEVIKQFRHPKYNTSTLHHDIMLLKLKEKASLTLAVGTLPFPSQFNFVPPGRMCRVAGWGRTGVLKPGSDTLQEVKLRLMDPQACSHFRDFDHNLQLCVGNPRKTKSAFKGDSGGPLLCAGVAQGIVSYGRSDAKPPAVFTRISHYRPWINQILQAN
Protocol: (§1) Enzyme-catalyzed hydrolysis rates were measured spectrophotometrically using human neutrophil cathepsin G (Athens Research and Technology) or human skin chymase (Cortex Biochem), a chromogenic substrate (Suc-Ala-Ala-Pro-Phe-pNa) (Bachem) in aqueous buffer (100 mM Hepes, 500 mM NaCl, pH 7.4 for catG; 450 mM Tris, 1800 mM NaCl, pH 8.0 for chymase), and a microplate reader (Molecular Devices). […] Percent inhibition was calculated by comparing the initial reaction slopes of the samples without inhibitor to those with inhibitor. IC50 values were determined using a four parameter fit logistics model. The term “NT” indicates a compound that was not tested.

[1] = biological target: T2, human neutrophil cathepsin G (Homo sapiens, UniProt P08311); assay: Enzyme-catalyzed hydrolysis assay, cathepsin G (chromogenic substrate Suc-Ala-Ala-Pro-Phe-pNa); type: biochemical; conditions: 70 nM enzyme, 5 mM substrate, pH 7.4, 37° C., 30 minutes; read-out: IC50 (μM) CatG
T2 construct: human neutrophil cathepsin G (Athens Research and Technology); purchased Athens Research and Technology; host or cells: human neutrophils (from the enzyme's name)
T2 sequence (P08311 21-243 limits assumed): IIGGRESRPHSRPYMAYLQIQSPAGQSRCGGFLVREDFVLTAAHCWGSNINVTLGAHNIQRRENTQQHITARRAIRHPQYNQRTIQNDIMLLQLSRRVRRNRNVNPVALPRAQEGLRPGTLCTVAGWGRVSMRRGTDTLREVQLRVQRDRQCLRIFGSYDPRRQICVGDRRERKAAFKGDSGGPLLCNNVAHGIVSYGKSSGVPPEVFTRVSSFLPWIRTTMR
Protocol: as §1

Row | Molecule | IC50 (human skin chymase) | IC50 [1]
1 | CN(C(=O)c1cc2ccccc2cc1C(=O)C(c1cccc2ccccc12)P(=O)(O)O)C1CCN(C(=O)c2ccccc2)CC1 (stereo not drawn) [Compound 15] | 0.017 ± 0.005 µM | –
2 | CN(C(=O)c1cc2ccccc2cc1C(=O)C(c1cccc2ccccc12)P(=O)(O)O)C1CCN(C(=O)/C=C/c2ccc(C(F)(F)F)cc2)CC1 (stereo not drawn) [Compound 10, [2[3-[[methyl[1-[(2E)-1-oxo-3-[4-(trifluoromethyl)-phenyl]-2-propenyl]-4-piperidinyl]amino]carbonyl]-2-naphthalenyl]-1-(1-naphthalenyl)-2-oxoethyl]-phosphonic acid] | 0.014 ± 0.006 µM | 0.053 ± 0.016 µM
3 | CN(C(=O)c1ccccc1C(=O)C(c1cccc2ccccc12)P(=O)(O)O)C1CCN(C(=O)c2ccc3ccccc3c2)CC1 (stereo not drawn) [Compound 31, [2-[2-[[methyl[1-(2-naphthalenylcarbonyl)-4-piperidinyl]amino]carbonyl]phenyl]-1-(1-naphthalenyl)-2-oxoethyl]-phosphonic acid] | 15 ± 0.67 µM | > 100 µM
4 | O=C(c1cc2ccccc2cc1C(=O)N1CCC(c2nc3ccccc3s2)CC1)C(c1cccc2ccccc12)P(=O)(O)O (stereo not drawn) [Compound 16, [2-[3-[[4-(2-benzothiazolyl)-1-piperidinyl]carbonyl]-2-naphthalenyl]-1-(1-naphthalenyl)-2-oxoethyl]-phosphonic acid] | 0.0085 ± 0.0023 µM | 0.19 ± 0.02 µM
5 | [2-[3-[[(1-acetyl-4-piperidinyl)methylamino]carbonyl]-2-naphthalenyl]-1-(1-naphthalenyl)-2-oxoethyl]-phosphonic acid [Compound 26] | 0.015 ± 0.001 µM | 0.096 ± 0.018 µM
6 | O=C(c1cc2ccccc2cc1C(=O)N1CCC2(CC1)C(=O)NCN2c1ccccc1)C(c1cccc2ccccc12)P(=O)(O)O (stereo not drawn) [Compound 8, [1-(1-naphthalenyl)-2-oxo-2-[3-[(4-oxo-1-phenyl-1,3,8-triazaspiro[4.5]dec-8-yl)carbonyl]-2-naphthalenyl]ethyl]-phosphonic acid] | 0.0074 ± 0.0022 µM | 0.13 ± 0.01 µM
7 | CC(C)C(=O)N1CCC(N(C)C(=O)c2cc3ccccc3cc2C(=O)C(c2cccc3ccccc23)P(=O)(O)O)CC1 (stereo not drawn) [Compound 20, [2-[3-[[methyl[1-(2-methyl-1-oxopropyl)-4-piperidinyl]amino]carbonyl]-2-naphthalenyl]-1-(1-naphthalenyl)-2-oxoethyl]-phosphonic acid] | 0.004 ± 0.002 µM | 0.09 ± 0.023 µM
8 | COc1cccc(C2CCN(C(=O)c3cc4ccccc4cc3C(=O)C(c3cccc4ccccc34)P(=O)(O)O)CC2)c1 (stereo not drawn) [Compound 14, [2-[3-[[4-(3-methoxyphenyl)-1-piperidinyl]carbonyl]-2-naphthalenyl]-1-(1-naphthalenyl)-2-oxoethyl]-phosphonic acid] | 0.01 ± 0.001 µM | 0.23 ± 0.03 µM

More lines, now with the values ahead:

Row | IC50 (human skin chymase) | IC50 [1] | Molecule
9 | – | 0.95 ± 0.21 µM | O=C(c1cc2ccccc2cc1C(=O)N1CCN(C(=O)Nc2ccc3ccccc3c2)CC1)C(c1cccc2ccccc12)P(=O)(O)O (stereo not drawn) [Compound 43]
10 | – | 0.74 ± 0.29 µM | O=C(c1cc2ccccc2cc1C(=O)N1CCN(C(=O)Cc2ccc3ccccc3c2)CC1)C(c1cccc2ccccc12)P(=O)(O)O (stereo not drawn) [Compound 37]
11 | 0.007 ± 0.001 µM | 0.09 ± 0.04 µM | O=C(NC1CCN(C(=O)c2cc3ccccc3cc2C(=O)C(c2cccc3ccccc23)P(=O)(O)O)CC1)c1ccc2ccccc2c1 (stereo not drawn) [Compound 34]
12 | – | 0.31 µM | O=C(NCc1ccc(S(=O)(=O)N2CCN(C(=O)c3cc4ccccc4cc3C(=O)C(c3cccc4ccccc34)P(=O)(O)O)CC2)s1)c1ccccc1 (stereo not drawn) [Compound 41]
13 | – | 0.56 ± 0.18 µM | O=C(c1cc2ccccc2cc1C(=O)N1CCN(S(=O)(=O)c2ccc3ccccc3c2)CC1)C(c1cccc2ccccc12)P(=O)(O)O (stereo not drawn) [Compound 35]
14 | – | 0.17 ± 0.05 µM | COc1ccc(N2CCN(C(=O)c3cc4ccccc4cc3C(=O)C(c3cccc4ccccc34)P(=O)(O)O)CC2)cc1 (stereo not drawn) [Compound 40]
15 | – | 0.14 ± 0.03 µM | O=C(c1cc2ccccc2cc1C(=O)N1CCN(S(=O)(=O)c2c(Cl)nc3sccn23)CC1)C(c1cccc2ccccc12)P(=O)(O)O (stereo not drawn) [Compound 42]
16 | – | 0.78 ± 0.22 µM | O=C(c1cc2ccccc2cc1C(=O)N1CCN(C(=O)c2ccc3ccccc3c2)CC1)C(c1cccc2ccccc12)P(=O)(O)O (stereo not drawn) [Compound 38]
